Values of other authors, collected in US20210330725A1, “GARCINIA MANGOSTANA EXTRACT FOR PROMOTING HAIR GROWTH” (PIERRE FABRE DERMO-COSMETIQUE, priority 2018, published 2021).

Test system: hair follicles
Conditions: mice

C[C@@H]1CCN(C(=O)CC#N)C[C@@H]1N(C)c1ncnc2[nH]ccc12 [Tofacitinib, tofacitinib]
effect on hair cycle of topical treatment in telogen phase: rapid re-entry at the beginning of anagen phase
